Test results taken from US5674979A, “Agent for inhibiting symmetrical proteins, in particular enzymes” (priority 1989, dated 1997).
Where two headings read alike, the source gives them in different places. Residues, ends and D or L forms follow the SMILES beside them. *: point of attachment. ClAc = O=C(CCl)*

Experiments:
HIV-1 [1] = conditions: H9 cells
Protocol: Compounds (a), (b), (c), (d) were tested in the molarity range from 0.1 μM to 1000 μM. Infectivity tests were carried out as follows: an HIV-1 suspension containing 10^2 infectious units was absorbed on to 5×10^6 H9 cells in a volume of 1 ml for 2 hours at 4° C. After this time, 9 ml of tissue culture medium with the required inhibitor concentration was added. The medium was exchanged with fresh medium plus inhibitor daily. Two control cultures were also prepared, one without inhibitor to determine the normal virus replication rate, the other containing inhibitor but no virus, to determine whether the substances were cytotoxic for H9 cells. […] The amount of virus antigen produced by the infected cells was measured daily using Elisa for eight days, indicating the amount of HIV-1 antigen in the tissue culture medium. After this, the cells were pelleted, washed in medium without inhibitor, and further incubated in inhibitor-less medium. The antigen production was measured on days 9 and 12 (ie 1 and […] after removal of the inhibitor). Virus production was also measured on days 7, 8, 9, and 12 by determining the amount of reverse transcriptase in the supernatant of the cell medium.

H9 cells = experiment: Cytotoxicity for H9 cells, trypan blue colouration; assay type: cell-based; conditions: culture with inhibitor but no virus, 0.1 μM to 1000 μM
Protocol: (§1) Infectivity tests were carried out as follows: an HIV-1 suspension containing 10^2 infectious units was absorbed on to 5×10^6 H9 cells in a volume of 1 ml for 2 hours at 4° C. After this time, 9 ml of tissue culture medium with the required inhibitor concentration was added. The medium was exchanged with fresh medium plus inhibitor daily. Two control cultures were also prepared, one without inhibitor to determine the normal virus replication rate, the other containing inhibitor but no virus, to determine whether the substances were cytotoxic for H9 cells. […] The amount of virus antigen produced by the infected cells was measured daily using Elisa for eight days, indicating the amount of HIV-1 antigen in the tissue culture medium. After this, the cells were pelleted, washed in medium without inhibitor, and further incubated in inhibitor-less medium. The antigen production was measured on days 9 and 12 (ie 1 and 3 days after removal of the inhibitor). Virus production was also measured on days 7, 8, 9, and 12 by determining the amount of reverse transcriptase in the supernatant of the cell medium.

HIV-1 [2] = test system: HIV-1
Protocol: as §1

[3] = 0,1 μM, day 9 post infection, no inhibitor (after removal)
[4] = 0,1 μM, day 12 post infection, no inhibitor (after removal)
[5] = 1 μM, day 9 post infection, no inhibitor (after removal)
[6] = 1 μM, day 12 post infection, no inhibitor (after removal)
[7] = 10 μM, day 9 post infection, no inhibitor (after removal)
[8] = 10 μM, day 12 post infection, no inhibitor (after removal)
[9] = 100 μM, day 9 post infection, no inhibitor (after removal)
[10] = 100 μM, day 12 post infection, no inhibitor (after removal)
[11] = 1000 μM, day 9 post infection, no inhibitor (after removal)
[12] = 1000 μM, day 12 post infection, no inhibitor (after removal)

## CC[C@H](C)[C@H](NC(=O)[C@@H]1CCCN1C(=O)[C@H](Cc1ccccc1)NC(=O)[C@H](C)NC(=O)CNC(=O)CCl)C(=O)N[C@@H](C)C(=O)O [C, Cl--CH2 --CO-Gly-Ala-Phe-Pro-Ile-Ala-OH] (ClAc-GAFPIA-OH)
HIV-1 [1]; 0,1 μM, day 1 post infection
  HIV-1 antigen production as measured in antigen capture ELISA: 0,062 o. D.
HIV-1 [1]; 0,1 μM, day 2 post infection
  HIV-1 antigen production as measured in antigen capture ELISA: 0,069 o. D.
HIV-1 [1]; 0,1 μM, day 3 post infection
  HIV-1 antigen production as measured in antigen capture ELISA: 0,055 o. D.
HIV-1 [1]; 0,1 μM, day 4 post infection
  HIV-1 antigen production as measured in antigen capture ELISA: 0,052 o. D.
HIV-1 [1]; 0,1 μM, day 5 post infection
  HIV-1 antigen production as measured in antigen capture ELISA: 0,054 o. D.
HIV-1 [1]; 0,1 μM, day 6 post infection
  HIV-1 antigen production as measured in antigen capture ELISA: 0,105 o. D.
HIV-1 [1]; 0,1 μM, day 7 post infection
  HIV-1 antigen production as measured in antigen capture ELISA: 0,276 o. D.
HIV-1 [1]; 0,1 μM, day 8 post infection
  HIV-1 antigen production as measured in antigen capture ELISA: 0,336 o. D.
HIV-1 [1]; [3]
  HIV-1 antigen production as measured in antigen capture ELISA: 0,588 o. D.
HIV-1 [1]; [4]
  HIV-1 antigen production as measured in antigen capture ELISA: 1,010 o. D.
HIV-1 [1]; 1 μM, day 1 post infection
  HIV-1 antigen production as measured in antigen capture ELISA: 0,061 o. D.
HIV-1 [1]; 1 μM, day 2 post infection
  HIV-1 antigen production as measured in antigen capture ELISA: 0,054 o. D.
HIV-1 [1]; 1 μM, day 3 post infection
  HIV-1 antigen production as measured in antigen capture ELISA: 0,060 o. D.
HIV-1 [1]; 1 μM, day 4 post infection
  HIV-1 antigen production as measured in antigen capture ELISA: 0,050 o. D.
HIV-1 [1]; 1 μM, day 5 post infection
  HIV-1 antigen production as measured in antigen capture ELISA: 0,051 o. D.
HIV-1 [1]; 1 μM, day 6 post infection
  HIV-1 antigen production as measured in antigen capture ELISA: 0,133 o. D.
HIV-1 [1]; 1 μM, day 7 post infection
  HIV-1 antigen production as measured in antigen capture ELISA: 0,267 o. D.
HIV-1 [1]; 1 μM, day 8 post infection
  HIV-1 antigen production as measured in antigen capture ELISA: 0,239 o. D.
HIV-1 [1]; [5]
  HIV-1 antigen production as measured in antigen capture ELISA: 0,808 o. D.
HIV-1 [1]; [6]
  HIV-1 antigen production as measured in antigen capture ELISA: 1,042 o. D.
HIV-1 [1]; 10 μM, day 1 post infection
  HIV-1 antigen production as measured in antigen capture ELISA: 0,069 o. D.
HIV-1 [1]; 10 μM, day 2 post infection
  HIV-1 antigen production as measured in antigen capture ELISA: 0,048 o. D.
HIV-1 [1]; 10 μM, day 3 post infection
  HIV-1 antigen production as measured in antigen capture ELISA: 0,066 o. D.
HIV-1 [1]; 10 μM, day 4 post infection
  HIV-1 antigen production as measured in antigen capture ELISA: 0,064 o. D.
HIV-1 [1]; 10 μM, day 5 post infection
  HIV-1 antigen production as measured in antigen capture ELISA: 0,049 o. D.
HIV-1 [1]; 10 μM, day 6 post infection
  HIV-1 antigen production as measured in antigen capture ELISA: 0,099 o. D.
HIV-1 [1]; 10 μM, day 7 post infection
  HIV-1 antigen production as measured in antigen capture ELISA: 0,228 o. D.
HIV-1 [1]; 10 μM, day 8 post infection
  HIV-1 antigen production as measured in antigen capture ELISA: 0,292 o. D.
HIV-1 [1]; [7]
  HIV-1 antigen production as measured in antigen capture ELISA: 0,643 o. D.
HIV-1 [1]; [8]
  HIV-1 antigen production as measured in antigen capture ELISA: 1,040 o. D.
HIV-1 [1]; 100 μM, day 1 post infection
  HIV-1 antigen production as measured in antigen capture ELISA: 0,064 o. D.
HIV-1 [1]; 100 μM, day 2 post infection
  HIV-1 antigen production as measured in antigen capture ELISA: 0,056 o. D.
HIV-1 [1]; 100 μM, day 3 post infection
  HIV-1 antigen production as measured in antigen capture ELISA: 0,062 o. D.
HIV-1 [1]; 100 μM, day 4 post infection
  HIV-1 antigen production as measured in antigen capture ELISA: 0,053 o. D.
HIV-1 [1]; 100 μM, day 5 post infection
  HIV-1 antigen production as measured in antigen capture ELISA: 0,061 o. D.
HIV-1 [1]; 100 μM, day 6 post infection
  HIV-1 antigen production as measured in antigen capture ELISA: 0,100 o. D.
HIV-1 [1]; 100 μM, day 7 post infection
  HIV-1 antigen production as measured in antigen capture ELISA: 0,265 o. D.
HIV-1 [1]; 100 μM, day 8 post infection
  HIV-1 antigen production as measured in antigen capture ELISA: 0,296 o. D.
HIV-1 [1]; [9]
  HIV-1 antigen production as measured in antigen capture ELISA: 0,787 o. D.
HIV-1 [1]; [10]
  HIV-1 antigen production as measured in antigen capture ELISA: 0,940 o. D.
HIV-1 [1]; 1000 μM, day 1 post infection
  HIV-1 antigen production as measured in antigen capture ELISA: 0,071 o. D.
HIV-1 [1]; 1000 μM, day 2 post infection
  HIV-1 antigen production as measured in antigen capture ELISA: 0,053 o. D.
HIV-1 [1]; 1000 μM, day 3 post infection
  HIV-1 antigen production as measured in antigen capture ELISA: 0,061 o. D.
HIV-1 [1]; 1000 μM, day 4 post infection
  HIV-1 antigen production as measured in antigen capture ELISA: 0,057 o. D.
HIV-1 [1]; 1000 μM, day 5 post infection
  HIV-1 antigen production as measured in antigen capture ELISA: 0,123 o. D.
HIV-1 [1]; 1000 μM, day 6 post infection
  HIV-1 antigen production as measured in antigen capture ELISA: 0,096 o. D.
HIV-1 [1]; 1000 μM, day 7 post infection
  HIV-1 antigen production as measured in antigen capture ELISA: 0,415 o. D.
HIV-1 [1]; 1000 μM, day 8 post infection
  HIV-1 antigen production as measured in antigen capture ELISA: 0,778 o. D.
HIV-1 [1]; [11]
  HIV-1 antigen production as measured in antigen capture ELISA: 1,019 o. D.
HIV-1 [1]; [12]
  HIV-1 antigen production as measured in antigen capture ELISA: 1,000 o. D.
H9 cells
  cytotoxic effect for H9 cells, colouration with trypan blue: no cytotoxic effect
HIV-1 [2]; 0,1 μM, day 7 post infection
  Reverse Transkriptase Determination: 5561 epm/ml
HIV-1 [2]; 0,1 μM, day 8 post infection
  Reverse Transkriptase Determination: 2314 epm/ml
HIV-1 [2]; [3]
  Reverse Transkriptase Determination: 7477 epm/ml
HIV-1 [2]; [4]
  Reverse Transkriptase Determination: 113340 epm/ml
HIV-1 [2]; 1 μM, day 7 post infection
  Reverse Transkriptase Determination: 4575 epm/ml
HIV-1 [2]; 1 μM, day 8 post infection
  Reverse Transkriptase Determination: 3198 epm/ml
HIV-1 [2]; [5]
  Reverse Transkriptase Determination: 4186 epm/ml
HIV-1 [2]; [6]
  Reverse Transkriptase Determination: 164240 epm/ml
HIV-1 [2]; 10 μM, day 7 post infection
  Reverse Transkriptase Determination: 5358 epm/ml
HIV-1 [2]; 10 μM, day 8 post infection
  Reverse Transkriptase Determination: 4398 epm/ml
HIV-1 [2]; [7]
  Reverse Transkriptase Determination: 8823 epm/ml
HIV-1 [2]; [8]
  Reverse Transkriptase Determination: 158800 epm/ml
HIV-1 [2]; 100 μM, day 7 post infection
  Reverse Transkriptase Determination: 3838 epm/ml
HIV-1 [2]; 100 μM, day 8 post infection
  Reverse Transkriptase Determination: 6370 epm/ml
HIV-1 [2]; [9]
  Reverse Transkriptase Determination: 8860 epm/ml
HIV-1 [2]; [10]
  Reverse Transkriptase Determination: 96780 epm/ml
HIV-1 [2]; 1000 μM, day 7 post infection
  Reverse Transkriptase Determination: 7646 epm/ml
HIV-1 [2]; 1000 μM, day 8 post infection
  Reverse Transkriptase Determination: 4308 epm/ml
HIV-1 [2]; [11]
  Reverse Transkriptase Determination: 5343 epm/ml
HIV-1 [2]; [12]
  Reverse Transkriptase Determination: 107640 epm/ml
